Reference: patent publication US20090088439A1, “Diazinane Compounds” (priority 2007, published 2009)

Experiments:
[1] = target: T1, GABAB(1A,2) receptor heterodimer (Homo sapiens, UniProt O75899+Q9UBS5); experiment: GTPγS35 radioligand filtration-binding assay for determination of PAM potency; type: biochemical; settings: membranes of CHO-K1 cells expressing GABABR1a/GABABR2; concentration required to reduce GABA's EC50 by 50%; PAM at 10, 1, 0.1 and 0.01 μM; read-out: Mean (EC50 derived) PAM EC50
T1 construct: expressed in transfected cells; membrane preparation
Description: The effect of GABA in an automated GTPγS^35 radioligand filtration-binding assay in CHO cells expressing the GABAB(1A,2) receptor heterodimer was studied in the presence or absence of the positive allosteric modulator test compounds. […]
(§1) The GABAB receptor is a G-protein coupled receptor. Binding of a ligand activates the receptor leading to recruitment of G-protein and a substitution of the G-protein bound GDP to GTP. The G-protein becomes active. The G-protein is inactivated by hydrolysis of GTP to GDP. G-proteins are membrane bound and therefore present in membrane preparations.
(§2) In the GTPγS^35 assay, GTP is not present but instead GTPγS^35 where one of the phosphate groups are substituted to a sulphur group which cannot be hydrolysed. Upon activation of the receptor, radiolabelled GTPγS^35 replaces the GDP. The complex cannot be inactivated and the radiolabelled complex is accumulating. At the end of the assay, the reaction mixture is filtered through a membrane-binding filter. Excess GTPγS^35 is removed by washing and the membrane bound S^35, which correlates to the degree of receptor activation, is measured with a β-Liquid Scintillation Counter.
GABABR1a and GABABR2 were cloned from human brain cDNA and subcloned into pCI-Neo (Promega) and pALTER-1 (Promega), respectively.
In order to optimise the Kozak consensus sequence of GABABR2, in situ mutagenesis was performed using the Altered Sites Mutagenesis kit according to manufacturer's instruction (Promega) with the following primer,
5′-[…]-3′. The optimised GABABR2 was then restricted from pALTER-1 with Xho I+Kpn I and subcloned into the mammalian expression vector pcDNA3.1(−)/Zeo (Invitrogen) to produce the final construct, pcDNA3.1(−)/Zeo-GABABR2.
For generation of stable cell lines, CHO-K1 cells were grown in Nut mix F-12 (Ham) media supplemented with 10% FBS, 100 U/ml Penicillin and 100 μg/ml Streptomycin at 37° C. in a humidified CO2-incubator. The cells were detached with 1 mM EDTA in PBS and 1 million cells were seeded in 100 mm petri dishes. After 24 hours the culture media was replaced with OptiMEM and incubated for 1 hour in a CO2-incubator.
For generation of a cell line expressing the GABABR1a/GABABR2 heterodimer, GABABR1a plasmid DNA (4 μg) GABABR2 plasmid DNA (4 μg) and lipofectamine (24 μl) were mixed in 5 ml OptiMEM and incubated for 45 minutes at room temperature. The cells were exposed to the transfection medium for 5 hours, which then was replaced with culture medium. The cells were cultured for an additional 10 days before selection agents (300 μg/ml hygromycin and 400 μg/ml geneticin) were added. Twenty-four days after transfection, single cell sorting into 96-well plates by flow cytometry was performed using a FACS Vantage SE (Becton Dickinson, Palo Alto, Calif.). After expansion, the GABAB receptor functional response was tested by measuring the GABAB receptor dependent release of intracellular calcium in a fluorescence imaging plate reader (FLIPR). The clone with the highest functional response was collected, expanded and then subcloned by single cell sorting. The clonal cell line with the highest peak response in the FLIPR was used in the present study.
GTPγS^35 radioligand filtration-binding assays were performed using an automated workstation at 30° C. for 1 hour in assay buffer (50 mM HEPES, 40 mM NaCl, 1 mM MgCl2×6H2O, 30 μg/mL Saponin, pH 7.4 at RT) containing 0.025 μg/μL of membrane protein (prepared from the cell line described above), 10 μM GDP and 0.55 nCi/μL GTPγS^35 in a final volume of 60 μL. The reaction was started by the addition of serially diluted GABA (final start concentration 1 mM dilution factor 3) in the presence or absence of four concentrations (final conc 10, 1, 0.1 and 0.01 μM) of PAM. The reaction was terminated and membranes collected by addition of ice-cold wash buffer (50 mM Tris-HCl, 5 mM MgCl2×6H2O, 50 mM NaCl, pH 7.4 at 4° C.) followed by rapid filtration under vacuum through a MultiScreen HTS 384 FB filter plate. […]

[2] = target: T2, GABABR1a/GABABR2 heterodimer (Homo sapiens, UniProt O75899+Q9UBS5); experiment: GTPγS35 radioligand filtration-binding assay for determination of agonist potency; type: biochemical; settings: membranes of CHO K1 Flp-In cells expressing GABABR1a/GABABR2; compound alone
T2 construct: expressed in transfected cells; membrane preparation
Description: The potency and efficacy of the compounds acting as agonists at the GABAB receptor was also determined in a automated GTPγS^35 radioligand filtration-binding assay.
as §1, §2
The human GABABR1a was subcloned into pIRESneo3 (Clontech) using GABABR1a construct as a template (refseqN NM001470). GABABR2 was subcloned into pCDNA5/FRT (Invitrogen) using GABABR2 construct as a template (refseqN NM005458). The Kozak sequence GCCACC was introduced before the start codon in both constructs.
For generation of stable cell lines, CHO K1 Flp-In cells (Invitrogen) were grown in DMEM/F 12 1:1 media supplemented with 10% FBS at 37° C. in a humidified CO2-incubator. The cells were detached with Accutase and 1.5 million cells were seeded into T75 flasks. After 24 h, transfection of the cells were performed with the GABABR2 construct. For generation of cell lines expressing GABABR2, GABABR2 plasmid (1 μg) and pOG44 from Invitrogen (9 μg) were mixed with 30 μl Lipofectamine 2000 in 600 μl OptiMEM for 20 minutes. The cells were exposed to transfection medium for 5 hours and was then replaced with culture medium. After 2 days 0.5 mg/ml Hygromycin were added to culture medium. The cells were cultured for an additional 10 days to establish a stable cell mix expressing GABABR2. For generation of a cell line expressing the GABABR1a/GABABR2 heterodimer, GABABR1a plasmid DNA (8 μg) and Lipofectamine (30 μl) were mixed in 600 μl OptiMEM and incubated for 20 minutes before added to CHO-Flp-In cells expressing GABABR2. After 2 days additional selection agent was added (0.8 mg/ml Geneticin). The cells were cultured for another 10 days to generate a stable mixed population expressing the GABABR1a/GABABR2 heterodimer. The cell line was analyzed by GTPγS^35 assay with GABA as agonist.
GTPγS^35 radioligand filtration-binding assays were performed using an automated workstation at 30° C. for 1 hour in assay buffer (50 mM HEPES, 40 mM NaCl, 1 mM MgCl2×6H2O, 30 μg/mL Saponin, pH 7.4 at RT) containing 0.025 μg/μL of membrane protein (prepared from the cell line described above), 10 μM GDP and 0.55 nCi/μL GTPγS^35 in a final volume of 60 μL. The reaction was started by the addition of compounds (GABA was always included as a positive control), start concentration 100 μM dilution factor 3. The reaction was terminated and membranes collected by addition of ice-cold wash buffer (50 mM Tris-HCl, 5 mM MgCl2×6H2O, 50 mM NaCl, pH 7.4 at 4° C.) followed by rapid filtration under vacuum through a MultiScreen HTS 384 FB filter plate. Repeated washing of the filters with ice-cold wash buffer washed the unbound radioligand away. The filter plates were dried for 1½-2 hours at 50° C., then 8 μL scintillation liquid was added per well followed by incubation at RT for at least 20 minutes before bound radioactivity was determined using a β-Liquid Scintillation Counter (1450 Microbeta Trilux, Wallac, Finland)
100% activation (max) is calculated as the mean value for wells containing 1 mM GABA. […]

T1 sequence (Q9UBS5 15-961 limits assumed): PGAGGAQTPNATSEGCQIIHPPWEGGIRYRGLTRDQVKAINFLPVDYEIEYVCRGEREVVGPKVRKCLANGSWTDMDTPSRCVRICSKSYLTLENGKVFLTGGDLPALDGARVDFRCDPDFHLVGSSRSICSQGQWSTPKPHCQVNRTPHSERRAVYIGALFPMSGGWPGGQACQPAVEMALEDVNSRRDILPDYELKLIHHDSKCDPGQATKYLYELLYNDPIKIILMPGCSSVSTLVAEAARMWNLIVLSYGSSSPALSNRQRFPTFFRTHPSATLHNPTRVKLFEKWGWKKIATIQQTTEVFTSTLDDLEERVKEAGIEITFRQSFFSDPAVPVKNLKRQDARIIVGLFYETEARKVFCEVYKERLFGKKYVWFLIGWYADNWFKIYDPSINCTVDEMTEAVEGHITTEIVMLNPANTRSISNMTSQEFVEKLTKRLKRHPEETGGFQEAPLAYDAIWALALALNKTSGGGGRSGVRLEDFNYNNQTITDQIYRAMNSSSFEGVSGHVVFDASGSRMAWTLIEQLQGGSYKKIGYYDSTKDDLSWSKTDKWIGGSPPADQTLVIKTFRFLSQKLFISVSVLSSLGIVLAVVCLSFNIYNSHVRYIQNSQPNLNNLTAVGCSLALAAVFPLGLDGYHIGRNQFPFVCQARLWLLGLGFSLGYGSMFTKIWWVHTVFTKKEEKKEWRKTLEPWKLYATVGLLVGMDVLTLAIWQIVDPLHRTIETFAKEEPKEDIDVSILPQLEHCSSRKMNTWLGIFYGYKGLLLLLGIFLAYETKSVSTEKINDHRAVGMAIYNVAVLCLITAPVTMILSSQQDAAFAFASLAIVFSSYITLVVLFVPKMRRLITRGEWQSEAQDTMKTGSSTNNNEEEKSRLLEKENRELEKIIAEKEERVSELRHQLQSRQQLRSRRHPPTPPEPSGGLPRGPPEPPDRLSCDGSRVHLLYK
T1 sequence (O75899 42-941): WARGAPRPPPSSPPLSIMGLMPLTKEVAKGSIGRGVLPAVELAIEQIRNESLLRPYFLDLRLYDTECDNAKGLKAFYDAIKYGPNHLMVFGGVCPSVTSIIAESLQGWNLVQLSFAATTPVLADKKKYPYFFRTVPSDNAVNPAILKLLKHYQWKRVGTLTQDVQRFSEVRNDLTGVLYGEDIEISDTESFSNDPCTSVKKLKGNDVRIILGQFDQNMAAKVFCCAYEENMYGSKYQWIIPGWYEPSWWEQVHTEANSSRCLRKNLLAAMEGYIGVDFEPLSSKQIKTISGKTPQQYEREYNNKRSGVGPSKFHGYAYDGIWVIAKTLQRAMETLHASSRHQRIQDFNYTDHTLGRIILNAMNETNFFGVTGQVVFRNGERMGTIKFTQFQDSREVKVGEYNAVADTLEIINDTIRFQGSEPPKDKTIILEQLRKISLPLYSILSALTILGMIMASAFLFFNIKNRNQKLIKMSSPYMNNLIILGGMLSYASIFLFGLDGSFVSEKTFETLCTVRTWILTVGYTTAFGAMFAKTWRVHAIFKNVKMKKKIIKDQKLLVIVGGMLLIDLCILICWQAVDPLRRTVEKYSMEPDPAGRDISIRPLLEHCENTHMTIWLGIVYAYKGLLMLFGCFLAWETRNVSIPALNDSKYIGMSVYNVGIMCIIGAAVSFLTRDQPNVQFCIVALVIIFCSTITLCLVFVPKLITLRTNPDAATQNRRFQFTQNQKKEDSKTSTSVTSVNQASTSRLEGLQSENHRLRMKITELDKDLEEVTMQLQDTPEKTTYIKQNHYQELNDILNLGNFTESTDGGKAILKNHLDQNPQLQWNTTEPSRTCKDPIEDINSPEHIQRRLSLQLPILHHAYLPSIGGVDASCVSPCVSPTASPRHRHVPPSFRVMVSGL
T2 sequence (Q9UBS5 15-961 limits assumed): as the sequence (Q9UBS5 15-961 limits assumed) above
T2 sequence (O75899 42-941): as the sequence (O75899 42-941) above

SMILES | EC50 [1] [nM] | EC50 [2] [nM]
CCCn1c(=O)n(Cc2ccc(Cl)cc2)c(=O)c2nc3c(nc21)CCCC3 [Example 20, 3-(4-chlorobenzyl)-1-propyl-6,7,8,9-tetrahydrobenzo[g]pteridine-2,4(1H,3H)-dione] | 800 | 800
CC(C)(C)CCn1c(=O)n(Cc2ccc(Cl)cc2)c(=O)c2nccnc21 [Example 6, 3-(4-chlorobenzyl)-1-(3,3-dimethylbutyl)pteridine-2,4(1H,3H)-dione] | 800 | 4700
CCCn1c(=O)n(Cc2ccc(Cl)cc2)c(=O)c2nc(C)c(C)nc21 [Example 15, 3-(4-chlorobenzyl)-6,7-dimethyl-1-propylpteridine-2,4(1H,3H)-dione] | 1300 | 36800
